Here are results for one substance from US6497872B1, “Neural transplantation using proliferated multipotent neural stem cells and their progeny” (NeuroSpheres Holdings Ltd., priority 1991, dated 2002).

In one experiment the test system is Primary striatal cells. Briefly: Striatum-derived neurosphere proliferation in response to proliferative and regulatory factors (Example 43, Paradigm 1). Format: cell-based, mouse. The protocol: Paradigm 1: Primary striatal cells prepared as outlined in Example 1 were suspended in Complete Medium, without growth factors, plated in 96 well plates (Nunclon) and incubated as described in Example 4. Following a one hour incubation period, a specific proliferative factor, or a combination of proliferative factors including EGF, or bFGF (recombinant human bFGF: R & D Systems), or a combination of EGF and bFGF, or EGF plus FGF plus heparan sulfate (Sigma), or bFGF plus heparan sulfate made up in Complete Medium at a concentration of 20 ng/ml for each of the growth factors and 2 μg/ml for heparan sulfate), was added to each well of the plate.
Retinoic acid (Sigma) was added at a concentration of 10^−6 M. 10 μl of one of these regulatory factor-containing solutions was added to each proliferative factor-containing well of the 96 well plates. Control wells, containing only proliferative factors, were also prepared. […]
IL-2, IL-6, IL-8, MIP-1∂, MIP-1β, MIP-2, TNFα and EGF additions were repeated every second day, CNTF which was added each day and retinoic acid, NGF and PDGF were added only once, at the beginning of the experiment. The cells were incubated for a period of 10-12 days. The number of neurospheres in each well was counted and the resulting counts tabulated using Cricket Graph III. Other relevant information regarding sphere size and shape were also noted.

For experiment [1], the system named is EGF-generated neurospheres. Kind of experiment: Effect of growth factors on neurosphere differentiation, immunocytochemistry (Example 8). The format is cell-based, mouse. As to conditions: 20 ng/ml. The protocol: Six to 8 days after the first passage, the neurospheres were removed and centrifuged at 400 r.p.m. The EGF-containing supernatant was removed and the pellet suspended in EGF-free complete medium containing 1% FBS. Neurospheres (approximately 0.5-1.0×10^6 cells/well) were plated on poly-L-ornithine-coated (15 μg/ml) glass coverslips in 24 well Nuclon (1.0 ml/well) culture dishes. After 24 hours in culture, the coverslips were transferred to 12 well (Costar) culture dishes containing complete medium containing 0.5% FBS. The medium was changed every 4-7 days. This differentiation procedure is referred to as the “Rapid Differentiation Paradigm” or RDP.
Six to 8 days after the first passage, the neurospheres were removed and centrifuged at 400 r.p.m. The EGF-containing media was removed and the pellet was suspended in EGF-free complete medium containing 1% FBS. The neurospheres were mechanically dissociated into single cells with a fire-polished Pasteur pipette and centrifuged at 800 r.p.m. for 5 minutes. Between 0.5×10^6 and 1.0×10^6 cells were plated on poly-L-ornithine-coated (15 μg/ml) glass coverslips in 24 well Nuclon (1.0 ml/well) culture dishes. The EGF-free culture medium containing 1% FBS was changed every 4-7 days.
Neurospheres were washed free of EGF by serial transfers through changes of EGF-free medium. A single neurosphere was plated onto poly-L-ornithine-coated (15 μg/ml) glass coverslips in a 24-well plate. The culture medium used was complete medium with or without I % FBS. The medium was changed every 4-7 days.
Neurospheres were washed free of EGF by serial transfers through changes of EGF-free medium. A single neurosphere was mechanically dissociated in a 0.5 ml Eppendorf centrifuge tube and all the cells were plated onto a 35 mm culture dish. Complete medium was used with or without 1% FBS.
The effects of CNTF, FGF-2, BDNF, and retinoic acid on neurosphere differentiation were tested using the differentiation paradigms set forth in Example 7.
The effect of CNTF was assayed in paradigms 1 and 3. For both paradigms, CNTF was added either at the beginning of the experiment at a concentration of 10 ng/ml or daily at a concentration of 1 ng/ml.
Three different antibodies directed against 04, galactocerebroside (GalC) and MBP were used to study the effect of CNTF on the oligodendrocytes of paradigm 1. CNTF had no effect on the number of 04(+) cells, but there was an increase in the number of GalC(+) and MBP(+) cells compared with the control. Thus it appears that CNTF plays a role in the maturation of oligodendrocytes.
The effect of FGF-2 was tested using paradigms 2 and 4. In paradigm 2, 20 ng/ml of FGF-2 was added at the beginning of the experiment and cells were stained 7 days later. FGF-2 increased the number of GFAP(+) cells and the number of NSE(+) cells.
In paradigm 4, 20 ng/ml of FGF-2 was added at the beginning of the experiment and assayed 7-10 days later. […] It induced two different cell types to divide, neuroblasts and bipotential progenitor cells. The neuroblast produced, on average, 6 neurons while the bipotential cell produced approximately 6 neurons and a number of astrocytes.

Another experiment relates to Striatal cells (E14). Kind of experiment: FGF-2 priming of low-density striatal cells before EGF (Example 8). Particulars: primed with 20 ng/ml FGF-2 for 11 DIV, then 20 ng/ml EGF 4-5 DIV; 2500 cell/cm^2. Format: cell-based, mouse. As to the method: Striatal cells (E14, 2500 cell/cm^2) were plated in the absence or presence of 20 ng/ml of FGF-2. After 11 DIV, cultures were washed and medium containing 20 ng/ml of EGF was added. After 4-5 DIV, in cultures that were primed with FGF-2, greater than 70% of the wells examined contained clusters of proliferating cells that developed into colonies with the morphologic and antigenic properties of the EGF-generated cells.

The subject of experiment [2] is constitutively proliferating subependymal cells of the lateral ventricles. Kind of experiment: In vivo proliferation of retrovirus β-gal labelled cells of the lateral ventricle (Example 27). Further details: species or system mouse. The protocol: A replication incompetent retrovirus containing the β-galactosidase gene [as described in Walsh and Cepko, Science 241:1342, (1988)] was injected into the forebrain lateral ventricles of CD1 adult male mice (25-30 g from Charles River). The injected retrovirus was harvested from the BAG cell line (ATCC CRL-9560) according to the method of Walsh and Cepko (supra). Mice were anesthetized using 65 mg/kg, i.p. sodium pentobarbital. Unilateral stereotactic injections of 0.2-1.0 μl of retrovirus were injected into the lateral ventricle using a 1 μl Hamilton syringe. The coordinates for injection were AP +4.2 mm anterior to lambda, L ±0.7 mm, and DV −2.3 mm below dura, with the mouth bar at −2 mm below the interaural line.
On the same day as, one day, or six days following the retrovirus injection, an infusion cannulae attached to a 0.5 μl/hour ALZET osmotic mini-pumps filled with 3.3-330 μg/ml of EGF were surgically implanted into the lateral ventricles at the identical stereotactic coordinates as stated above. The infusion cannula kits were obtained from ALZA. The infusion cannulae were cut to 2.7 mm below the pedestal. The pumps were secured to the mouse skull by use of acrylic cement and a skull screw contralateral and caudal to the injection site. […]

The mark [3] stands for this setting: paradigm 2, stained 7 days later.

With “bFGF: basic fibroblast growth factor, recombinant human (R & D Systems)”, the “size of neurospheres relative to those generated in the presence of EGF” value in the experiment on Primary striatal cells (bFGF alone) is listed as “about 20%”. Also, the “neurospheres generated per well” value in the experiment with Primary striatal cells (proliferative factor alone, 20 ng/ml) is listed as “approximately 70 neurospheres per well”. For the same substance, in experiment [1] (setting [3]), the “number of GFAP(+) cells” value is “increased” and the “number of NSE(+) cells” value is “increased”. In addition, in experiment [1] (paradigm 4), the “neurons produced per bipotential cell” value was “approximately 6 neurons” and the “neurons produced per neuroblast, on average” value was determined as 6 neurons. Also, the “proliferation of neural stem cell progeny generated by the EGF-responsive stem cell” value in experiment [1] (paradigm 4, 7-10 days) was “induced the proliferation”. In addition, in the experiment with Striatal cells (E14), the “wells containing clusters of proliferating cells” value is “greater than 70%”. The “number of β-gal labelled cells” value in experiment [2] (33 μg/ml infusion) is recorded as “increase”. Moreover, the “migration of β-gal labelled cells” value in experiment [2] (6 days infusion) is reported as “not accompanied by any additional migration”.
